Data reported in patent US11866430B2, “Naphthyridinone compounds useful as T cell activators” (priority 2018, dated 2024).
pIC50: −log10 of the molar value. Read-outs that look alike come from different tables or passages of the source.

Legend:
[1] = system: pre-activated CD4 T cells and Raji cells; test: Raji CD4 T Cell IL2 Assay; type: cell-based
human DGKζ [2] = target: T1, human DGKζ (Homo sapiens (Human), UniProt Q13574); test: DGKζ assay (detergent/lipid micelle substrate); type: biochemical
Summary of the method: (§1)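 Full-length human DGKα or DGKζ (C-terminal His tag, Sf9-expressed; 20 nM 4× stock) was preincubated 10 min at room temperature with PS/DAG octyl glucoside micelles in MOPS pH 7.5 buffer with MgCl2, CaCl2 and DTT. It was then started with ATP (300 uM addition) and run for 1 hr, with ADP-Glo luminescence read-out.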

human DGKζ [3] = target: T1, human DGKζ; test: DGKζ LIPGLO assay (extruded liposome substrate); type: biochemical
Summary of the method: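 Recombinant DGKζ (Sf9-expressed, Ni/SEC/SP-purified) preincubated 10 min with extruded 100 nm PC/DAG/PS liposomes in 50 mM MOPS pH 7.5, 100 mM NaCl, 10 mM MgCl2, 1 μM CaCl2, 1 mM DTT. Started with 300 uM ATP solution (stock, pre-addition); 1 hr reaction. ADP-Glo luminescence; IC50 from 11 concentrations.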

human DGKα [4] = target: T2, human DGKα (Homo sapiens (Human), UniProt P23743); test: biochemical; conditions: detergent/lipid micelle substrate; read-out: DGKα IC50
Summary of the method: as §1

human DGKα [5] = target: T2, human DGKα; test: DGKα LIPGLO assay (extruded liposome substrate); type: biochemical
Summary of the method: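 Human full-length DGKα, His-tagged and produced in Sf9 cells, assayed at 20 nM (4× stock) on extruded liposomes of PS, 0.25 mM DAG and 2.75 mM PC, preincubated 10 min. Reaction started with 300 μM ATP (stock) and ran 1 h in MOPS pH 7.5/MgCl2/CaCl2/DTT buffer.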

[6] = detergent/lipid micelle substrate, read-out: DGKζ IC50
[7] = extruded liposome substrate, read-out: DGKζ LIPGLO IC50

T1 sequence (Q13574 other isoform, or with tags, fused parts or gaps): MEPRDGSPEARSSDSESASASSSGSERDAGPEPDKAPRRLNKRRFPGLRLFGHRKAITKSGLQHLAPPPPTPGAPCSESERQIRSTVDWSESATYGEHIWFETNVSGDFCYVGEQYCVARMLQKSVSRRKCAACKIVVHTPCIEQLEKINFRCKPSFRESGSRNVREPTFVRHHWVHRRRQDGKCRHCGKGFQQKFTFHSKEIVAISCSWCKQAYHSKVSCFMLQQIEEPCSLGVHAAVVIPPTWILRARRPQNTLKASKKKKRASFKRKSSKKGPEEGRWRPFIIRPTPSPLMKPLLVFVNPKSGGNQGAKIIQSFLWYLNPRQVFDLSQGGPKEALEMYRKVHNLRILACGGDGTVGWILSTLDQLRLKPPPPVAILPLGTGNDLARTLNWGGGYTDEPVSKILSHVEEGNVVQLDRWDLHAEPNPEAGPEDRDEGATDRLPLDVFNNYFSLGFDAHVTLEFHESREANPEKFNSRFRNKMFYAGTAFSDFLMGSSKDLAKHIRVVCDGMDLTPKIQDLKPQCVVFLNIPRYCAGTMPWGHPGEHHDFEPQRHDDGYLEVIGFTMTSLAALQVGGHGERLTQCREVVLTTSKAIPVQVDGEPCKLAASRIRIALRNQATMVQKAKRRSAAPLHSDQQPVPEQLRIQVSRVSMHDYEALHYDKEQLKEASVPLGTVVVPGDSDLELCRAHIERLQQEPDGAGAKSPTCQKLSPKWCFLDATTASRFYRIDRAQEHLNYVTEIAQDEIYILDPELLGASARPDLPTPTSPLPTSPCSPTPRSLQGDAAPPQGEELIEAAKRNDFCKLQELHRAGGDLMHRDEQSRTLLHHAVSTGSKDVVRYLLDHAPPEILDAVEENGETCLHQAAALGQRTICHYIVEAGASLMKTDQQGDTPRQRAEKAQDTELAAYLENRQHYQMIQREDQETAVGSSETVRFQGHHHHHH
T2 sequence (P23743 other isoform, or with tags, fused parts or gaps): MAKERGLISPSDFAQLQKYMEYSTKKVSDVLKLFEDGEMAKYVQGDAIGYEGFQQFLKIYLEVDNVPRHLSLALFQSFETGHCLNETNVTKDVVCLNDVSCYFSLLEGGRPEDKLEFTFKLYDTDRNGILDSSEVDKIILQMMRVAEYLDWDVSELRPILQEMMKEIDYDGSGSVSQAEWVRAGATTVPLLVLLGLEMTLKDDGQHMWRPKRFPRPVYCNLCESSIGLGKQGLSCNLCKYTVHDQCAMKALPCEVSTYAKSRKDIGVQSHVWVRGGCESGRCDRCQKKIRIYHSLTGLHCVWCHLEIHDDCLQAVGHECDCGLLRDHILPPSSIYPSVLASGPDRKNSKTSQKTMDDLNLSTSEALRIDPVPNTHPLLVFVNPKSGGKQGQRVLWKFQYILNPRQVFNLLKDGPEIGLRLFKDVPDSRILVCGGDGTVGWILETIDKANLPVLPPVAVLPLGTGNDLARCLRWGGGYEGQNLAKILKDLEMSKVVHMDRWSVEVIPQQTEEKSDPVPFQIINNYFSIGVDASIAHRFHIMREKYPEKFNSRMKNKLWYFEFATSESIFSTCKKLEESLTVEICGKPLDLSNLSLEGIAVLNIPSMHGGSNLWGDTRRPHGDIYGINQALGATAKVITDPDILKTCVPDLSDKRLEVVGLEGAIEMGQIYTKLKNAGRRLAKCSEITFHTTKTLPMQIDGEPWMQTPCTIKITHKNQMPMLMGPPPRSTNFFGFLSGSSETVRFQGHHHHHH

Compound `CCC(c1ccc(F)cc1)N1CCN(c2c([N+](=O)[O-])c(=O)n(C)c3ccc(C#N)nc23)CC1` (single isomer, unassigned) [Example 34, 8-{4-[1-(4-fluorophenyl)propyl]piperazin-1-yl}-5-methyl-7-nitro-6-oxo-5,6-dihydro-1,5-naphthyridine-2-carbonitrile] has a pIC50 [1] of 7.46, a pIC50 (human DGKζ [2]; DGKζ IC50, detergent/lipid micelle substrate) of 4.64 and a pIC50 (human DGKζ [3]; DGKζ LIPGLO IC50, extruded liposome substrate) of 5.47. For the same compound, the pIC50 (human DGKα [4]) was 6.74 and the pIC50 (human DGKα [5]) was 6.54.

In the case of `COc1ccccc1C(c1ccc(F)cc1)N1CCN(c2c(C#N)c(=O)n(C)c3ccc(Br)nc23)CC1` (single isomer, unassigned) [Example 14, 6-bromo-4-{4-[(4-fluorophenyl)(2-methoxyphenyl)methyl]piperazin-1-yl}-1-methyl-2-oxo-1,2-dihydro-1,5-naphthyridine-3-carbonitrile], the pIC50 [1] was 7.59, the pIC50 (human DGKζ [2]; [6]) was under 3.62 and the pIC50 (human DGKζ [3]; [7]) was 5.49. The pIC50 (human DGKα [4]) was 5.92 and the pIC50 (human DGKα [5]) was 5.33.

Work on `C#CCn1c(=O)c([N+](=O)[O-])c(N2CCN(C(c3ccc(F)cc3)c3ccc(F)cc3OC)CC2)c2nc(C#N)ccc21` (single isomer, unassigned) [Example 127, 8-(4-((4-fluoro-2-methoxyphenyl)(4-fluorophenyl)methyl)piperazin-1-yl)-7-nitro-6-oxo-5-(prop-2-yn-1-yl)-5,6-dihydro-1,5-naphthyridine-2-carbonitrile] yielded a pIC50 [1] of 8.19, a pIC50 (human DGKζ [2]; [6]) of 6.60 and a pIC50 (human DGKζ [3]; [7]) of 7.52. The pIC50 (human DGKα [4]) was 5.38 and the pIC50 (human DGKα [5]) was 5.54.

With `C#CCn1c(=O)c([N+](=O)[O-])c(N2CCN(C(CC)c3ccc(F)cc3)CC2)c2nc(C#N)ccc21` (single isomer, unassigned) [Example 140, 8-{4-[1-(4-fluorophenyl)propyl]piperazin-1-yl}-7-nitro-6-oxo-5-(prop-2-yn-1-yl)-5,6-dihydro-1,5-naphthyridine-2-carbonitrile] the pIC50 ([1]; Homo sapiens, Raji) was 8.22, the pIC50 (human DGKζ [2]; [6]) was 6.22 and the pIC50 (human DGKζ [3]; [7]) was 6.89. For the same compound, the pIC50 (human DGKα [4]) was 6.19 and the pIC50 (human DGKα [5]) was 5.57.

For `Cc1cccc(OCc2cncc(C#N)c2)c1C(c1ccc(F)cc1)N1CCN(c2c([N+](=O)[O-])c(=O)n(C)c3ccc(Br)nc23)CC1` (single isomer, unassigned) [Example 90, 5-((2-((4-(6-bromo-1-methyl-3-nitro-2-oxo-1,2-dihydro-1,5-naphthyridin-4-yl)piperazin-1-yl)(4-fluorophenyl)methyl)-3-methylphenoxy)methyl)nicotinonitrile], the pIC50 [1] was 6.20, the pIC50 (human DGKζ [2]; [6]) was 3.72 and the pIC50 (human DGKζ [3]; [7]) was 4.82. It also gave a pIC50 (human DGKα [4]) of 4.09 and a pIC50 (human DGKα [5]) of under 3.62.

`Cn1c(=O)c(C#N)c(N2CCN(Cc3ccc(F)cc3Cl)CC2)c2nc(Cl)ccc21` [Example 287, 6-chloro-4-{4-[(2-chloro-4-fluorophenyl)methyl]piperazin-1-yl}-1-methyl-2-oxo-1,2-dihydro-1,5-naphthyridine-3-carbonitrile] gave a pIC50 ([1]; Homo sapiens, Raji) of 7.00, a pIC50 (human DGKζ [2]; [6]) of under 3.62 and a pIC50 (human DGKζ [3]; [7]) of 4.54. For the same compound, the pIC50 (human DGKα [4]) was 5.68 and the pIC50 (human DGKα [5]) was 4.74.

In the case of `Cc1cccc(O)c1CN1CCN(c2c(C#N)c(=O)n(C)c3ccc(Cl)nc23)CC1` [Example 292, 6-chloro-4-{4-[(2-hydroxy-6-methylphenyl)methyl]piperazin-1-yl}-1-methyl-2-oxo-1,2-dihydro-1,5-naphthyridine-3-carbonitrile], the pIC50 ([1]; Homo sapiens, Raji) was 6.96, the pIC50 (human DGKζ [2]; [6]) was 4.60 and the pIC50 (human DGKζ [3]; [7]) was 5.62. The pIC50 (human DGKα [4]) was 6.57 and the pIC50 (human DGKα [5]) was 6.32.

In the case of `Cn1c(=O)c(C#N)c(N2CCN(C(c3ccc(F)cc3)C3CC3)CC2)c2nc(Br)ccc21` (stereo not shown) [Example 35, 6-bromo-4-{4-[cyclopropyl(4-fluorophenyl)methyl]piperazin-1-yl}-1-methyl-2-oxo-1,2-dihydro-1,5-naphthyridine-3-carbonitrile], the pIC50 ([1]; Homo sapiens, Raji) was 6.68, the pIC50 (human DGKζ [2]; [6]) was under 3.62 and the pIC50 (human DGKζ [3]; [7]) was 4.09. For the same compound, the pIC50 (human DGKα [4]) was 6.85 and the pIC50 (human DGKα [5]) was 6.00.
